Test results taken from patent USRE47689E1, “Compounds for treating spinal muscular atrophy” (PTC Therapeutics, Inc., priority 2011, dated 2019).

Tests used:
[1] = tested on: SMA Δ7 homozygous knockout mice; assay: Body weight of neonatal Δ7 SMA mice; format: in vivo, mouse; details: IP QD from PND 3, then orally BID until study end, compared to vehicle
Experimental: The change in body weight of neonatal SMA mice is used to determine whether treatment with a test compound improves body weight.
Protocol. SMA Δ7 homozygous knockout mice are dosed intraperitoneally (IP) with test compound or vehicle (100% DMSO) once per day (QD) from postnatal day (PND) 3 until the dose regimen is switched to an oral dose twice per day (BID) in 0.5% hydroxypropylmethyl cellulose (HPMC) with 0.1% Tween-80 at a dose 3.16-fold higher than the dose used for IP. Body weights of SMA Δ7 mice treated with test compound or vehicle and age matched heterozygous mice are recorded every day.

[2] = tested on: gems (Smn-dependent nuclear speckles); assay: Gems count (Smn-dependent nuclear speckle count) assay; format: cell-based, human; details: SMA Type 1 patient fibroblasts; 48 hours; fluorescence microscopy
Text: The level of Smn protein directly correlates with the amount of nuclear foci, also known as gems, produced upon staining the cell with a fluorescently labeled anti-Smn antibody (Liu and Dreyfuss, EMBO J., 1996, 15:3555). Gems are multi-protein complexes whose formation is nucleated by the Smn protein and the gems count assay is used to evaluate the level of Smn protein in the cell. As described herein, the gems count assay is used to quantify the level of Smn protein in SMA patient fibroblast cells treated with a test compound.
Protocol: Cells are thawed and incubated in DMEM-10% FBS for 72 hours, then trypsinized, counted and resuspended to 100,000 cells/mL in DMEM-10% FBS. 2 mL of the cell suspension is plated in a 6-well cell culture plate with a sterile cover slip and incubated for 3 to 5 hours. Test compounds are serially diluted 3.16-fold in 100% DMSO to generate a 7-point dilution curve. […]
Cell culture medium is aspirated from the wells containing cover slips and gently washed three times with cold PBS. […] The number of gems is counted per ≥150 nuclei and % activation is calculated using DMSO and 10 nM bortezomib as controls. For each test compound, the cells are examined at all wavelengths to identify test compounds with inherent fluorescence.

[3] = tested on: full length and Δ7 SMN2 mRNAs; assay: Endogenous SMN2 mRNA end-point semi-quantitative RT-PCR splicing assay in animal tissues; format: in vivo, mouse; details: C/C-allele SMA mice, brain and muscle, oral gavage twice per day for 10 days, agarose gel
Experimental: The endpoint reverse transcription-PCR (RT-PCR) splicing assay is used to quantify the levels of the full length and Δ7 SMN2 mRNAs in tissues from mice treated with test compound.
Protocol. C/C-allele SMA mice are treated by oral gavage two times per day for 10 days with test compounds in 0.5% HPMC and 0.1% Tween-80. Tissue samples are collected and snap frozen for RNA purification.
Tissue samples (20-40 mg) are homogenized in QIAzol Lysis Reagent for 2 minutes at 20 Hz in the TissueLyser II using one stainless steel bead. After addition of chloroform, the homogenate is separated into aqueous and organic phases by centrifugation. RNA partitioned to the upper, aqueous phase is extracted and ethanol is added to provide appropriate binding conditions. The sample is then applied to the RNeasy spin column from the RNeasy Mini Kit, where total RNA binds to the membrane. The RNA is eluted in RNase-free water then stored at −20° C.
SMN2 spliced products are identified using the following amplification primers in Table 8. These primers hybridize to a nucleotide sequence in exon 6 (SMN Forward D, SEQ ID NO. 13) (nucleotide 22 to nucleotide 46) and exon 8 (SMN Reverse C, SEQ ID NO. 12) common to human SMN1 and SMN2 mRNAs.
To synthesize cDNA, combine 1 μL of RNA solution (25-50 ng), 4 μL of 5× iScript reaction mix, 1 μL of reverse transcriptase, and 10 μL of water are combined and incubates 25° C. for 5 min followed by 42° C. for 30 min followed by 85° C. for 5 min. cDNA solution is stored at −20° C.
To perform endpoint PCR, 5 μL of cDNA, 0.2 μL of 100 μM forward primer, 0.2 μL of 100 μM reverse primer, and 22.5 μL of polymerase super mix are combined in a 96 well semiskirted PCR plate. PCR is carried out at the following temperatures for indicated time: Step 1: 94° C. (2 min), Step 2: 94° C. (30 sec), Step 3: 55° C. (30 sec), Step 4: 68° C. (1 min), then repeat Steps 2 to 4 for a total of 33 cycles, then hold at 4° C.
10 μL of each PCR sample is electrophoretically separated on a 2% agarose E-gel for 14 minutes, stained with ds DNA staining reagents (e.g., ethidium bromide) and visualized using a gel imager.

## CC(C)NCCc1ccc2cc(-c3nc4c(Cl)cccc4s3)c(=O)oc2c1 [Cpd 35, 3-(4-chloro-1,3-benzothiazol-2-yl)-7-[2-(propan-2-ylamino)ethyl]-2H-chromen-2-one]
[1]
  body weight: improved compared to vehicle treated mice
[2]
  number of gems relative to DMSO: progressively more gems relative to cells treated with DMSO
[3]
  SMN2 FL mRNA: progressively more SMN2 FL mRNA
  SMN2 Δ7 mRNA: less SMN2 Δ7 mRNA

## CCN1CCN(c2ccc3cc(-c4cn5cc(C)nc(C)c5n4)c(=O)oc3c2)C[C@@H]1C [Cpd 626, 3-(6,8-dimethylimidazo[1,2-a]pyrazin-2-yl)-7-[(3S)-4-ethyl-3-methylpiperazin-1-yl]-2H-chromen-2-one]
[1]
  body weight: improved compared to vehicle treated mice
[2]
  number of gems relative to DMSO: progressively more gems relative to cells treated with DMSO
[3]
  SMN2 FL mRNA: progressively more SMN2 FL mRNA
  SMN2 Δ7 mRNA: less SMN2 Δ7 mRNA
